Experimental data published in PMC6295231 (Clinical cancer research : an official journal of the …, 2018).

Tests used:
[1] = test system: ELK1-dependent promoter activation by AR; assay: primary screening assay; type: cell-based; details: for IC50 for inhibition of ELK1-dependent promoter activation by AR: primary screening assay, compound dose range of 1-10μM; for IC50: Homo sapiens, HeLa, read-out: IC50 for inhibition of ELK1-dependent promoter activation by AR
ELK1 (Homo sapiens) = ELK1 (Homo sapiens) (UniProt P19419); details: cited from earlier work
purified human AR = target: T1, purified human AR (Homo sapiens, UniProt P10275); assay: surface plasmon resonance, binding to immobilized AR; details: for Kd: dissociation constant (Kd) for binding to AR, SPR, AR immobilized
T1 sequence (P10275 1-920): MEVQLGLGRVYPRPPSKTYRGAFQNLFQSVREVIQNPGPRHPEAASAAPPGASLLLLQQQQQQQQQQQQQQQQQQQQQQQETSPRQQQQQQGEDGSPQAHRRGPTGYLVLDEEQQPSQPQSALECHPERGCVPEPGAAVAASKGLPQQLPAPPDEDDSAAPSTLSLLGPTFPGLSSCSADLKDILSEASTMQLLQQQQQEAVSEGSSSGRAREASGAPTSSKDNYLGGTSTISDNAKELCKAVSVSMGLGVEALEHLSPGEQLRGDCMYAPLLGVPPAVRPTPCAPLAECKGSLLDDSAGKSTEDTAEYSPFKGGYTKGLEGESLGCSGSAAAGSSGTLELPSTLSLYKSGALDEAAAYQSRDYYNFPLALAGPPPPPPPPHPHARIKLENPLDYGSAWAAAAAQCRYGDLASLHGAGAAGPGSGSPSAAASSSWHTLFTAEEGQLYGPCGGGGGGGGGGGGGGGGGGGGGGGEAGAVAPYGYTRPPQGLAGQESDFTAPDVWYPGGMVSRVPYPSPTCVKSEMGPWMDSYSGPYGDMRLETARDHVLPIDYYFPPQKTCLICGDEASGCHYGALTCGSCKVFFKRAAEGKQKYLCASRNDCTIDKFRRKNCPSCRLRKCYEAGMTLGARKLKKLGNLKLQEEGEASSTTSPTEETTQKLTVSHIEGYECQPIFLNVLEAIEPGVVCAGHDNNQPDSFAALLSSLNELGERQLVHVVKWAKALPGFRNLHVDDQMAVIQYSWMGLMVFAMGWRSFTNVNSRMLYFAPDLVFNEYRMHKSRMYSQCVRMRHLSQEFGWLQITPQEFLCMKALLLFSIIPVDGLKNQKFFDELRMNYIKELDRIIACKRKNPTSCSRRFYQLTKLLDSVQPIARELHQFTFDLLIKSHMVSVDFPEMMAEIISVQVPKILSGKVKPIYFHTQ

[2] = test system: activation of ELK1 by MEK/ERK; type: cell-based; details: HeLa cells co-transfected
[3] = test system: ARE-dependent promoter activation by AR; assay: counter screening assay; type: cell-based; details: words
[4] = easily oxidized; ref [33], [34]; cited from earlier work
22Rv1 cells = assay: MTT growth assay, 22Rv1; details: androgen-independent cells; up to 20 uM
VCaP cells = assay: MTT growth assay, VCaP; details: androgen-dependent cells
LNCaP cells = assay: MTT growth assay, LNCaP; details: androgen-dependent cells; up to 20 uM
[5] = test system: PDX-PR011 tumor xenograft; assay: PDX-PR011 patient-derived tumor xenograft in male SCID mice; details: for tumor growth, PDX-PR011 xenograft: treatment from Day 1 after implantation
[6] = target: association of AR with ELK1 (Homo sapiens, UniProt P10275); assay: BRET assay of association of ELK1 with AR in HEK293T cells; type: cell-based; details: pre-incubation
AR-V7 = assay: hormone-independent promoter activation by AR-V7; type: cell-based; details: relatively higher concentrations required
[7] = test system: HeLa (cervical cancer cells); assay: growth of AR-negative cells, HeLa; type: cell-based
[8] = test system: HEK293 (adenovirus transformed kidney fibroblasts); assay: growth of AR-negative cells, HEK293; type: cell-based
22Rv1 CRPC cells = assay: colony formation assay, 22Rv1
in vivo = details: SCID, mouse
binding of AR to ELK1 = binding of AR to ELK1 (Homo sapiens, UniProt P10275); assay: SPR competition: binding of AR; details: AR 200 nM
[9] = test system: DU145 (prostate cancer cells); assay: growth of AR-negative cells, DU145; type: cell-based
[10] = test system: AR recruitment to chromatin in LNCaP cells; assay: chromatin immunoprecipitation; type: cell-based; details: R1881 10nM + KCI807 20uM, 2h
[11] = mouse, in vivo
ELK1 = ELK1 (Homo sapiens, UniProt P19419); assay: surface plasmon resonance, binding to immobilized ELK1; details: SPR
[12] = test system: AR or AR-V7 protein level; assay: protein level of AR / AR-V7 in PC/CRPC cell lines; type: cell-based
[13] = test system: H1650 (lung adenocarcinoma cells); assay: growth of AR-negative cells, H1650; type: cell-based
[14] = plasma/serum levels and metabolites of KCI807 by LC-MS/MS; details: mice, 250 mg/kg IP alternate days, 6h after last injection
[15] = test system: AR target genes in 22Rv1 cells; assay: real time RT-PCR of AR target genes in 22Rv1 cells; type: cell-based; details: 10 µM, 72h

Chain of ELK1 (Homo sapiens) (P19419 whole entry): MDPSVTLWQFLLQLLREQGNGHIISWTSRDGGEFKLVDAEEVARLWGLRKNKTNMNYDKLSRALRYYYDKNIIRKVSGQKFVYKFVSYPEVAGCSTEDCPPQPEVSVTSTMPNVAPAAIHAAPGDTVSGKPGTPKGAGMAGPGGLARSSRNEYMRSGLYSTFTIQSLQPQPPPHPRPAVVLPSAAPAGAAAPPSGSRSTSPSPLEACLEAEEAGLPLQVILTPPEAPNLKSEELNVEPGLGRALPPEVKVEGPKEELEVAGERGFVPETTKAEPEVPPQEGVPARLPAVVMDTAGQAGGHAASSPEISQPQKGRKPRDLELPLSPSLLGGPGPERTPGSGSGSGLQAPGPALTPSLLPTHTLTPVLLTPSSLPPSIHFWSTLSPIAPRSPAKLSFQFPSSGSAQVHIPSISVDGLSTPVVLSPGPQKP
Chain of ELK1 (P19419 whole entry): as above

O=c1cc(-c2ccc(O)cc2)oc2cc(O)ccc12 [7,4’-Dihydroxyflavone]
IC50 for inhibition of ELK1-dependent promoter activation by AR [1]: No effect

COc1ccc(-c2cc(=O)c3c(O)cc(O)cc3o2)cc1O [5,7,3’-Trihydroxy-4’-methoxyflavone]
IC50 [1]: 1.37 µM

AR (from UniProt P10275)
Kd (ELK1 (Homo sapiens)): 0.02 µM

O=c1cc(-c2ccccc2)oc2cc(O)cc(O)c12 [5.7-Dihydroxyflavone]
IC50 for inhibition of ELK1-dependent promoter activation by AR [1]: No effect

O=c1cc(-c2cccc(O)c2)oc2ccccc12 [3’-Hydroxyflavone]
Kd (purified human AR): 1.43 µM
IC50 for inhibition of ELK1-dependent promoter activation by AR [1]: No effect

CC(=O)Nc1cccc(-n2c(=O)n(C3CC3)c(=O)c3c(Nc4ccc(I)cc4F)n(C)c(=O)c(C)c32)c1 [trametinib, reference compound]
inhibition of luciferase reporter activation by MEK1 (caMEK1, Gal4-ELK1) [2]: completely inhibited

COc1cc(OC)c2c(=O)cc(-c3ccc(OC)c(OC)c3)oc2c1 [5,7,3’,4’-Tetramethoxyflavone]
IC50 for inhibition of ELK1-dependent promoter activation by AR [1]: No effect

O=c1cc(-c2cccc(O)c2)oc2cc(O)ccc12 [7,3’-Dihydroxyflavone]
IC50 for inhibition of ELK1-dependent promoter activation by AR [1]: No effect

O=c1cc(-c2ccc(O)c(O)c2)oc2cc(O)cc(O)c12 [Hit 1, 5,7,3’,4’-Tetrahydroxyflavone]
effect on ARE-dependent promoter activation by AR (counter screen) [3]: virtual absence of an effect
stability in vitro [4]: highly unstable
IC50 [1]: 1.01 µM
inhibition at 10 µM ([1]; Mus musculus, MIN6, 6 h, read-out: inhibition in the primary screen): 80 to 100%

CNC(=O)c1ccc(N2C(=S)N(c3ccc(C#N)c(C(F)(F)F)c3)C(=O)C2(C)C)cc1F [enzalutamide, reference compound]
cell growth inhibition, MTT, 22Rv1 (22Rv1 cells): only showed partial effects
cell growth inhibition, MTT, VCaP (VCaP cells): most sensitive
cell growth inhibition, MTT, LNCaP (LNCaP cells): only showed partial effects
tumor growth, PDX-PR011 xenograft [5]: insensitive

O=c1cc(-c2ccc(O)cc2)oc2cccc(O)c12 [5,4’-Dihydroxyflavone]
IC50 [1]: 5.48 µM

O=c1cc(-c2ccccc2)oc2cccc(O)c12 [5-Hydroxyflavone]
IC50 [1]: > 10 µM

COc1ccc(-c2cc(=O)c3c(O)c(OC)c(OC)cc3o2)cc1O [5,3’-Dihydroxy-6,7,4’-trimethoxyflavone]
IC50 [1]: 4.17 µM

O=c1cc(-c2ccc(O)c(O)c2)oc2cccc(O)c12 [5,3’,4’-Trihydroxyflavone]
IC50 [1]: 1.01 µM

O=c1cc(-c2ccc(O)c(O)c2)oc2cc(O)ccc12 [7,3’,4’-Trihydroxyflavone]
IC50 for inhibition of ELK1-dependent promoter activation by AR [1]: No effect

O=c1cc(-c2cccc(O)c2)oc2cccc(O)c12 [KCI807, 5,3’-Dihydroxyflavone]
cell growth inhibition, MTT, 22Rv1 (22Rv1 cells): completely inhibited cell growth
BRET coupling between ELK1 and AR [6]: inhibited
cell growth inhibition, MTT, VCaP (VCaP cells): most sensitive
cell growth inhibition, MTT, LNCaP (LNCaP cells): completely inhibited cell growth
hormone-independent promoter activation by splice variant AR-V7 (AR-V7): inhibited
growth of HeLa cells [7]: did not appreciably affect
symptoms during PDX-PR011 study ([5]; mouse, in vivo): asymptomatic
weight loss during PDX-PR011 study ([5]; mouse, in vivo): did not show appreciable weight loss
tumor growth, PDX-PR011 xenograft [5]: significantly inhibited
growth of HEK293 cells [8]: did not appreciably affect
concentration beyond which colony growth was virtually completely inhibited (22Rv1 CRPC cells): > 125 nM
half-life (in vivo): 6 h
blocking of binding of purified AR (analyte) to immobilized ELK1 (binding of AR to ELK1): blocked binding
growth of DU145 cells [9]: did not appreciably affect
dissociation constant for AR relative to that for binding of ELK1 to AR (purified human AR; ELK1-AR value ref [25]): ~ 3 times
Kd (purified human AR): 0.0692 µM
AR recruitment at canonical ARE enhancer sites (KLK3, TMPRSS2) [10]: did not impede
association of AR with chromatin sites at which ELK1 recruits AR [10]: prevented association
immediate and peri-acute post-injection toxicity (dose determination) [11]: asymptomatic post all doses given
binding to immobilized ELK1 (ELK1): did not bind
expression of AR or AR-V7 proteins [12]: does not affect
growth of H1650 cells [13]: did not appreciably affect
plasma level of unmetabolized compound (median), Day 11 [14]: 0.387 µM
plasma level of unmetabolized compound (median), Day 19 [14]: 0.07 µM
inhibition of luciferase reporter activation by MEK1 (caMEK1, Gal4-ELK1) [2]: did not inhibit
expression of AR target genes (mRNA) [15]: decreased expression of only the genes known to be supported synergistically by ELK1 and AR
IC50 [1]: 0.53 µM

O=c1cc(-c2ccc(O)c(O)c2)oc2ccccc12 [3’.4’-Dihydroxyflavone]
IC50 for inhibition of ELK1-dependent promoter activation by AR [1]: No effect

COc1c(-c2ccc(O)c(O)c2)oc2cc(O)cc(O)c2c1=O [5,7,3’,4’-Tetrahydroxy-3-methoxyflavone]
IC50 for inhibition of ELK1-dependent promoter activation by AR [1]: No effect

COc1cc(-c2cc(=O)c3c(O)cc(O)cc3o2)ccc1O [5,7,4’-Trihydroxy-3’-methoxyflavone]
IC50 for inhibition of ELK1-dependent promoter activation by AR [1]: No effect
